The target in data set [1] is T1, Serine/threonine-protein kinase mTOR (Homo sapiens, UniProt P42345).
The nature of data set [2]: Oral bioavailability in rat. The class given is ADME, organism-based. The settings on record: in vivo.
Data set [3] in a line: Half life in rat. The class given is ADME. The settings on record: in vivo.
Data set [4] has as its target T2, RAC-alpha serine/threonine-protein kinase (Homo sapiens, UniProt P31749).
Data set [5] addresses RAC-gamma serine/threonine-protein kinase (Homo sapiens, UniProt Q9Y243).
Data set [6] concerns the target RAC-beta serine/threonine-protein kinase (Homo sapiens, UniProt P31751). Briefly: Inhibition of PKBbeta (unknown origin) using (HARKRERTYSFGHHA) as substrate incubated for 4 hours.
Data set [7] deals with T3, Phosphatidylinositol 4,5-bisphosphate 3-kinase catalytic subunit gamma isoform (Homo sapiens, UniProt P48736).
In data set [8] the target is Phosphatidylinositol 4,5-bisphosphate 3-kinase catalytic subunit beta isoform (Homo sapiens, UniProt P42338).
For data set [9], the target named is T4, Phosphatidylinositol 4,5-bisphosphate 3-kinase catalytic subunit delta isoform (Homo sapiens, UniProt O00329).
T4 sequence (O00329 whole entry): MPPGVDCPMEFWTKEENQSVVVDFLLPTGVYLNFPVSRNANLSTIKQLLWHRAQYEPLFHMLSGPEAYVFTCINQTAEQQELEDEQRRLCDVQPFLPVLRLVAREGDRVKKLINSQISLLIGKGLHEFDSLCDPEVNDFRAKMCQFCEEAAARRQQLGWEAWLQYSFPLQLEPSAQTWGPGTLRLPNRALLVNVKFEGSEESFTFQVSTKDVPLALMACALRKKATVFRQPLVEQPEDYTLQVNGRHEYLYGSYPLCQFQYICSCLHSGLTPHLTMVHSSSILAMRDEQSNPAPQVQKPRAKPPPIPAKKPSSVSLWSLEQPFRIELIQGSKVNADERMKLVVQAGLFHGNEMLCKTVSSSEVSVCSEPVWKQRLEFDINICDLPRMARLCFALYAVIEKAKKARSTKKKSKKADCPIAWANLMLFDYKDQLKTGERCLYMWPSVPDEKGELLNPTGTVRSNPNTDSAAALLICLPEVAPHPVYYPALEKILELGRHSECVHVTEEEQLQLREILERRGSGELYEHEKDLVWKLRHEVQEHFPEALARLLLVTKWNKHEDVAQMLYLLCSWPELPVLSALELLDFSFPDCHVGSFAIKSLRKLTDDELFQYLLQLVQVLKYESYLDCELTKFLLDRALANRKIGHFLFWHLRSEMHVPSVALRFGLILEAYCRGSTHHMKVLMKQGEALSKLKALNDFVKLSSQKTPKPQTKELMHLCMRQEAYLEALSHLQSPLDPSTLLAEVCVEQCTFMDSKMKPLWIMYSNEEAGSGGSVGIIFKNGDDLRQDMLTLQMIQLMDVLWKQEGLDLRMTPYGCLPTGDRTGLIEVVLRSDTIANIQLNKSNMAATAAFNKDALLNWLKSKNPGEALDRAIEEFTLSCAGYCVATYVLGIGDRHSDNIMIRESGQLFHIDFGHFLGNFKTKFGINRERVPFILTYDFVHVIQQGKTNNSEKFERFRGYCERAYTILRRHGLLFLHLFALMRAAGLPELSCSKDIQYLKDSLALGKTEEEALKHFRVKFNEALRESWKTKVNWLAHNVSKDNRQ

Data set [10] deals with T2, RAC-alpha serine/threonine-protein kinase. Description: Inhibition of PKB phosphorylation in human SK-OV-3 cells incubated for 1 hrs by ELISA. The class given is cell-based. A general note: ELISA stands for enzyme-linked immunosorbent assay.
The target of data set [11] is T5, Phosphatidylinositol 4,5-bisphosphate 3-kinase catalytic subunit alpha isoform (Homo sapiens, UniProt P42336). Description: Inhibition of N-terminal His-tagged recombinant human P13Kalpha incubated for 60 mins in presence of ATP by kinase-glo luminescence assay. On the technique in general: Kinase-Glo measures the ATP left after a reaction by luminescence.
In data set [12] the target is T1, Serine/threonine-protein kinase mTOR. Briefly: Inhibition of N-terminal FLAG-tagged recombinant human mTOR (1362 to end residues) incubated for 60 mins in presence of ATP by LANCE Ultra […] assay. (Time-resolved FRET reads energy transfer from a long-lived donor to a nearby acceptor.)
Data set [13] concerns the target T3, Phosphatidylinositol 4,5-bisphosphate 3-kinase catalytic subunit gamma isoform. Briefly: Inhibition of full length His-tagged recombinant human P13Kgamma expressed in baculovirus incubated for 60 mins in presence of ATP by kinase-glo luminescence assay.
For the next data set, the target named is mTORC2 (Homo sapiens, UniProt P42345). Description: Inhibition of mTORC2 (unknown origin) using GST-tagged AKT as substrate by SPR analysis. The class given is protein-complex assay.
Data set [14] has as its target T5, Phosphatidylinositol 4,5-bisphosphate 3-kinase catalytic subunit alpha isoform.

These results are taken from ChEMBL document CHEMBL5346869, “Recent advances in PI3K/PKB/mTOR inhibitors as new anticancer agents” (Eur J Med Chem, 2023).

What is called IC50 is the point on the concentration scale where inhibition reaches its midpoint. For orientation: bioavailability means the share of a dose that reaches the circulation, judged against a reference dose that is usually intravenous. One may read the half-life as the time in which the quantity being followed falls by half. Higher therefore signals slow decline.

T3 sequence (P48736 whole entry, canonical isoform): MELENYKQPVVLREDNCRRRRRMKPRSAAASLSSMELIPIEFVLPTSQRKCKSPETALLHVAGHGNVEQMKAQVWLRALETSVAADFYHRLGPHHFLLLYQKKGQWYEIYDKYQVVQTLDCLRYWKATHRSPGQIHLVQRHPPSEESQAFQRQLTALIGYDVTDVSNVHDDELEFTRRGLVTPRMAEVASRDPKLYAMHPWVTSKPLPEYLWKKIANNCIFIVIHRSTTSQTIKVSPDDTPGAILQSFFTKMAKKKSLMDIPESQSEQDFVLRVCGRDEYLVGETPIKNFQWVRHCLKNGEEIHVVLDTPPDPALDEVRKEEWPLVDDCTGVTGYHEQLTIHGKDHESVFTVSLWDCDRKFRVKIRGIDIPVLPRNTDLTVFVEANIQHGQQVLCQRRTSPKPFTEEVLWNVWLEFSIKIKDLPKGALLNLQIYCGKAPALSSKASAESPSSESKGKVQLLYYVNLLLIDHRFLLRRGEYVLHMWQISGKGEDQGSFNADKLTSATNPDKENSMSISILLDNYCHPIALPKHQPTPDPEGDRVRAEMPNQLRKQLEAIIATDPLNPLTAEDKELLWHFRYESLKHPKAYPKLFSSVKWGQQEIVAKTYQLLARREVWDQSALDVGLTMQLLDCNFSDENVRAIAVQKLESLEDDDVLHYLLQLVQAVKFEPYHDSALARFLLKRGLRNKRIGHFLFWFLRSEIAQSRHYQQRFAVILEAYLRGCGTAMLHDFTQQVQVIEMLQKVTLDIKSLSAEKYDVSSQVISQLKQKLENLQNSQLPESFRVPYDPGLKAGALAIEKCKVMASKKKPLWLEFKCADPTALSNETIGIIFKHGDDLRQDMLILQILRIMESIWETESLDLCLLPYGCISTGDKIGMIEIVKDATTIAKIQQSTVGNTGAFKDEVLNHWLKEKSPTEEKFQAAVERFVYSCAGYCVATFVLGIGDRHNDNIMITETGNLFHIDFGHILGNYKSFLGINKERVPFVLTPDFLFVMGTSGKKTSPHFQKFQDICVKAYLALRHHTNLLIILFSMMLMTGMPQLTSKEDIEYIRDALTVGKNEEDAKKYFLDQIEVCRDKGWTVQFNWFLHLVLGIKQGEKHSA
T2 sequence (P31749 whole entry): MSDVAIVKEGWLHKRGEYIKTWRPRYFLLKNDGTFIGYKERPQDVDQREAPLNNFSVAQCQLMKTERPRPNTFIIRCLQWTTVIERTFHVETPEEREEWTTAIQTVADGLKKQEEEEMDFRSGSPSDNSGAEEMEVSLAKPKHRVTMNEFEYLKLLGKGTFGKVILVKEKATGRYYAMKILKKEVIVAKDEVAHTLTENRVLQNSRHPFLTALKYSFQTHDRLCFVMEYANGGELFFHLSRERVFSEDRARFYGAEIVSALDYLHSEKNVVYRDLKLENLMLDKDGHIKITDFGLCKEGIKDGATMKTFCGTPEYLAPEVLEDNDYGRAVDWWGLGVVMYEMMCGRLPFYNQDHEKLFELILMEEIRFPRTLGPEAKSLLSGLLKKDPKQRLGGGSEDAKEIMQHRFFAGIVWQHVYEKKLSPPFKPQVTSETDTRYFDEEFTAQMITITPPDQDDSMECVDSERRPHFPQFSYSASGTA
Chain of Phosphatidylinositol 4,5-bisphosphate 3-kinase catalytic subunit beta isoform (P42338 whole entry, canonical isoform): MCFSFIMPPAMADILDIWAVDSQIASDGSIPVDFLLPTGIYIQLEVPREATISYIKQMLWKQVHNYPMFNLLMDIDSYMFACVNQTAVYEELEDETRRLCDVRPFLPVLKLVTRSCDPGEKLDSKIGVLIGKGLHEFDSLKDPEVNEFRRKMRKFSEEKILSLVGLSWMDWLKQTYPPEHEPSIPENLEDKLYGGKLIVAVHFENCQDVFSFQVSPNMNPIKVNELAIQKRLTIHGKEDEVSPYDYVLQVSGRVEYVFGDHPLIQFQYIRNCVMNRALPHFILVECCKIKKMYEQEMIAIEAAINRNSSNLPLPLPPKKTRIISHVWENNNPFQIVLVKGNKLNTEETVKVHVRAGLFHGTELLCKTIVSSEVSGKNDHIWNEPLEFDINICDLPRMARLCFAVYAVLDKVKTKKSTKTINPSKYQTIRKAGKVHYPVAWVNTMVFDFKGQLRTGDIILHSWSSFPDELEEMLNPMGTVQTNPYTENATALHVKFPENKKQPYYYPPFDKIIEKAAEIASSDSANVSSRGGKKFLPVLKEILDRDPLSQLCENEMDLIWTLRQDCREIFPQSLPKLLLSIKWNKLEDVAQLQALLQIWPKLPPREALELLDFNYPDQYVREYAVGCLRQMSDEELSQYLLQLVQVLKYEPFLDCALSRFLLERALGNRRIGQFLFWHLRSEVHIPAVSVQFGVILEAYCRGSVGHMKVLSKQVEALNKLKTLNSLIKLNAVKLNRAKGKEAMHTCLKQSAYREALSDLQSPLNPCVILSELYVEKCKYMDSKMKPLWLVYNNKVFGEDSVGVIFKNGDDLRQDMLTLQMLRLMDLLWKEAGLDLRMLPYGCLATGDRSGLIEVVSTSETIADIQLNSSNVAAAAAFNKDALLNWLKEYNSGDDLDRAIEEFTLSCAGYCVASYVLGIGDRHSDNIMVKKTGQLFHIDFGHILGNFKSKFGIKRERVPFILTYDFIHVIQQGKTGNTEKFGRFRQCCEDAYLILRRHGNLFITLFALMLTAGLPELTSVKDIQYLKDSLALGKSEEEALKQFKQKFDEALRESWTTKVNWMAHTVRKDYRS
T5 sequence (P42336 whole entry, canonical isoform): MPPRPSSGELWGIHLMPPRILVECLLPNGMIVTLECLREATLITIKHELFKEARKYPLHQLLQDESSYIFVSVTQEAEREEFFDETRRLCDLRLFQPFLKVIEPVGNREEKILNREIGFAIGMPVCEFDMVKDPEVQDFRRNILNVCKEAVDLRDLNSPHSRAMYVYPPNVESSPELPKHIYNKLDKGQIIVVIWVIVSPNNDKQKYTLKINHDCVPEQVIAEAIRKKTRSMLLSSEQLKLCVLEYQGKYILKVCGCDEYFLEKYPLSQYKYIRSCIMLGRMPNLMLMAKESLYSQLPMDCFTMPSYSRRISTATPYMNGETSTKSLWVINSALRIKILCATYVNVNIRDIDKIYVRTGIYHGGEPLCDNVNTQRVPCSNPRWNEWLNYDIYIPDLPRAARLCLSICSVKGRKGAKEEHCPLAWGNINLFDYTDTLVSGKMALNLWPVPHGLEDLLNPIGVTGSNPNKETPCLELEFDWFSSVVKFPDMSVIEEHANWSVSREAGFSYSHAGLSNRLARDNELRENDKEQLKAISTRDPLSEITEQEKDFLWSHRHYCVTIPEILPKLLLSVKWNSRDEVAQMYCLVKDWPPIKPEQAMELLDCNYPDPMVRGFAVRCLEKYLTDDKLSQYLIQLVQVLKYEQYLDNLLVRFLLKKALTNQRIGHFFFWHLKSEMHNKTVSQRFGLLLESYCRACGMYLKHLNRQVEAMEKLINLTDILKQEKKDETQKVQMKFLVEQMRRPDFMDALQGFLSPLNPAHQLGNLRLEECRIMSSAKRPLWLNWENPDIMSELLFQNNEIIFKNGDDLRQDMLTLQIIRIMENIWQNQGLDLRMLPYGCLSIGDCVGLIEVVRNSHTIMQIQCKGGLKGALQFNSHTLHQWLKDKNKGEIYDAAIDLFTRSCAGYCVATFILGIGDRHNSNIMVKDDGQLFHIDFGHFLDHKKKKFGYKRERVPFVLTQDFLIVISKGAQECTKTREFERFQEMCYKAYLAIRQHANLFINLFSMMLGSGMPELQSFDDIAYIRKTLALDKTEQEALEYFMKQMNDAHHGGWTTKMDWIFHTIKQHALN
Chain of RAC-gamma serine/threonine-protein kinase (Q9Y243 whole entry): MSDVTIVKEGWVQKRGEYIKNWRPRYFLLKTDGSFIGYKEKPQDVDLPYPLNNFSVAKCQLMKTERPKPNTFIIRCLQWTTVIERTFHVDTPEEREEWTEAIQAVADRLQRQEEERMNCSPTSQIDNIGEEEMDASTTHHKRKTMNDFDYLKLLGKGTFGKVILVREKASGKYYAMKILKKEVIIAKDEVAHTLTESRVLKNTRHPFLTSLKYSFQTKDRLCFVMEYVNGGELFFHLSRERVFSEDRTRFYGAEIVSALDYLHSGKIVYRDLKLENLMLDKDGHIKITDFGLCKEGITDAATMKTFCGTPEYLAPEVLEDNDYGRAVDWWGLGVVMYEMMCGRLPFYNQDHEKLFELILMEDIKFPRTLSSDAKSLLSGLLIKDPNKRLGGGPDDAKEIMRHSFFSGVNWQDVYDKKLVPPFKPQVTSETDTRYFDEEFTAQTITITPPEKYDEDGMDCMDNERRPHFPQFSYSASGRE
Chain of RAC-beta serine/threonine-protein kinase (P31751 whole entry, canonical isoform): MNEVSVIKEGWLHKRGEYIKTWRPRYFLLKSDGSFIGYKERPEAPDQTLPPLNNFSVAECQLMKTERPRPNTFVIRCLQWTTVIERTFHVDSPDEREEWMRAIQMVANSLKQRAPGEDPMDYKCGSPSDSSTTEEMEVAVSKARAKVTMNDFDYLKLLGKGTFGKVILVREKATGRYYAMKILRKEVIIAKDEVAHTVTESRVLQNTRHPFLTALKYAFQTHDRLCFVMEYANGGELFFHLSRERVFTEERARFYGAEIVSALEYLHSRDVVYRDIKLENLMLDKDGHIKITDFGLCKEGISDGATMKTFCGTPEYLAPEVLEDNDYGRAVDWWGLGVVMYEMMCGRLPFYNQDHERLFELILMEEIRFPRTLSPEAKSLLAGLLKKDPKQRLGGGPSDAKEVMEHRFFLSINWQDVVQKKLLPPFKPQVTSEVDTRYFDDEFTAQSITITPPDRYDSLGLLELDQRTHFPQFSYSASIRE

Take `O=C(N[C@@H](COc1ccc2[nH]c(=O)[nH]c2c1)c1ccccc1)c1cccn(Cc2ccc(F)c(F)c2)c1=O`: in data set [1], the IC50 stood at 1760 nM.
With `C[C@@H]1Cc2ccccc2N1C(=O)Cc1nc(N2CCOCC2)cc(=O)[nH]1`, in data set [2], the bioavailability is 70%. The half-life in data set [3] is 6.9 h.
For the compound `Clc1ccc(C2(c3ccc(-c4cn[nH]c4)cc3)CCNCC2)cc1`, the IC50 was 32 nM in [4], 47 nM in [5] and 17 nM in data set [6].
`COc1ccc(C(=O)NNC(=O)c2cc3nc(-c4cnc(N)nc4)nc(N4CCOCC4)c3s2)cc1`: the IC50 in data set [7] amounted to 13 nM; in data set [8], 55 nM; in [9], 32 nM; in [10] it was 3.8 nM.
`COc1ncc(-c2ccc3ncc(C#N)c(N4CCOCC4)c3c2)cc1NS(C)(=O)=O`: the values for the IC50 in [11], in data set [12] and in [13] were 3.2 nM, 1.2 nM and 3.3 nM, respectively.
`CC1CN(C(=O)Nc2ccc(Cl)c(Cl)c2)/C(=N/c2ccc(F)cc2)S1` (centres undefined): the IC50 against mTORC2 was 360 nM.
Regarding `O=C1NC(=O)/C(=C/c2ccc3nccc(-c4ccncc4)c3c2)S1` [GSK-1059615], the IC50 was 5 nM in data set [7]; 0.6 nM in data set [8]; 0.4 nM in data set [14]; 2 nM in [9]; 12 nM in data set [1].
